This is an account of results in EP1928474B1, “USE OF GLUCOSYLATED HYDROXYSTILBENES FOR THE PREVENTION AND TREATMENT OF EYE PATHOLOGIES” (Tubilux Pharma S.P.A., priority 2005, dated 2007).

The subject of data set [1] is inducible nitric-synthesase oxide (iNOS). Kind of data set: iNOS production by hTERT fibroblasts stimulated with cytokines (IL-1 + IFN-γ), iNOS-positive cells by flow cytometry. The format is cell-based, human. Conditions: for number of iNOS-positive fibroblasts: pre-incubation at 1.25 - 2.5 - 5 µg/ml, then IL-1 3 ng/ml + IFN-γ 250 U/ml, 48 h, Figure 1. The method, then:
The study aimed at determining the effects of treatment with piceide and resveratrol on the inducible nitric-synthesase oxide (iNOS) by corneal fibroblasts immortalised with human Telomerase Reverse Transcriptase (hTERT fibroblasts), stimulated with interferon-γ (IFN-γ) and interleukine-1 (IL-1).
Some hTERT fibroblasts were maintained in a DMEM culture medium. They were subsequently re-suspended at a concentration of 1x10^6 and placed on 24 mm-well plates. The cells were incubated at a temperature of 37°C with piceide or resveratrol at doses of 1.25 - 2.5 - 5 µg/ml. After 15 minutes the following were added to the wells containing the cells: IL-1 at a concentration of 3 ng/ml, and IFN-γ at a concentration of 250 U/ml. After a further 48 h of incubation, the fibroblasts were washed and re-suspended in PBS at a concentration of 1x10^6, in order to determine the iNOS-positive cells by means of flow cytometry.
The cells treated in the aforesaid way were permeabilised by treatment with 70% ethanol and then labelled with 5 µg/ml of a human anti-iNOS antibody labelled with FITC. After; colouring, the cells were fixed in paraformaldehyde and analysed by means of a FACScan cytofluorimeter.
(In general: Flow cytometry measures light scatter and fluorescence of single cells or particles in a stream.)

Data set [2] relates to hTERT fibroblasts. Kind of data set: Differentiation of TGF-β-stimulated hTERT fibroblasts into myofibroblasts, α-SMA-positive cells by flow cytometry. It is filed as cell-based, human. The conditions noted are these: 5 µg/ml; for percentage of cells capable of expressing α-SMA: sub-optimal dose (0.1 ng/ml) of TGF-β, Figure 2. How it is done:
The study aimed at determining the effects of piceide treatment on the differentiation of corneal fibroblasts immortalised with human inverse telomerase transcriptase (hTERT fibroblasts) stimulated with sub-optimal, optimal or above-optimal doses of TGF-β. Fibroblast differentiation into myofibroblasts was determined by examining whether there was any α-smooth muscle actin (α-SMA).
Some hTERT fibroblasts maintained in a DMEM culture were re-suspended at a concentration of 1x10^6 and placed on 24mm-well plates. The cells were incubated at a temperature of 37°C with piceide or resveratrol at doses of 5 µg/ml. After 24 h the cells were stimulated with optimal (1ng/ml), sub-optimal (0.1 ng/ml) and above-optimum (10 ng ml) doses of TGF-β. After 3, 5 and 10 days of incubation, the fibroblasts were washed and re-suspended in PBS at a concentration of 1x10^6, in order to determine the α-SMA-positive cells by means of flow cytometry.
The cells treated in the aforesaid way were permeabilised by treatment with 70% ethanol and then labelled with 5µg/ml of a human anti-α-SMA antibody labelled with FITC. After colouring, the cells were fixed in paraformaldehyde and analysed by a means of a FACScan cytofluorimeter.

In data set [3] the test system is human liver myofibroblasts. The conditions noted are these: literature; cited from earlier work.
A further data set relates to iNOS. Kind of data set: iNOS production by fibroblasts of normal corneal origin stimulated with IL-1. Conditions: equal doses. It is filed as cell-based. The text has this: As will be illustrated in greater detail in the experimental section below, piceide - at non-toxic levels - blocks iNOS production and its activity is correlated to the dose. […] This different activity is probably due to the different chemical structure of the two molecules and to the consequent different biological characteristics, among which the greater bioavailability of piceide at the cell level is important. Another anti-inflammatory effect of piceide, linked to what has been said above, lies in its capacity to inhibit cyclooxygenase synthesis and thus the synthesis and release of pro-inflammatory prostaglandins.

In data set [4] the test system is fibroblasts of normal corneal origin. Kind of data set: Differentiation of TGF-β-stimulated fibroblasts of normal corneal origin into myofibroblasts, α-SMA expression. It is filed as cell-based. The text has this: As reported in detail in the experimental section below, piceide has - unlike resveratrol - unexpectedly proven to be capable of modulating the capacity of TGF-β to cause fibroblast differentiation into myofibroblasts.

Data set [5] deals with hTERT fibroblasts. Kind of data set: Toxicity for hTERT fibroblasts at the doses assayed. The conditions noted are these: doses of the differentiation study, 5 µg/ml.

`Oc1ccc(/C=C/c2cc(O)cc(O)c2)cc1` [resveratrol, reference compound]: the “number of iNOS-positive fibroblasts” value in data set [1] is “decrease”. In addition, the “percentage of α-SMA+ cells” value in the data set with hTERT fibroblasts [2] (above-optimal dose of TGF-β, time not stated) was “did not lead to any statistically significant variation”; in the data set with hTERT fibroblasts [2] (optimal dose of TGF-β, time not stated), “did not lead to any statistically significant variation”; in the data set with hTERT fibroblasts [2] (sub-optimal dose of TGF-β, time not stated), “did not lead to any statistically significant variation”. Further, the “effect on liver myofibroblasts” value in data set [3] is listed as “able to deactivate human liver myofibroblasts”. Also, the α-SMA expression result in data set [3] was “reduction”.

As for `Oc1cc(O)cc(/C=C/c2ccc(O)c(O)c2)c1` [trans-piceatannol, trans-3,4',3',5-tetrahydroxystilbene], in data set [3], the “effect on liver myofibroblasts” value is “neither trans-piceide nor another hydroxystilbene - trans-piceatannol (trans-3,4',3',5-tetrahydroxystilbene) - have shown any effect”.

Consider `OC[C@H]1O[C@@H](Oc2cc(O)cc(/C=C/c3ccc(O)cc3)c2)[C@H](O)[C@@H](O)[C@@H]1O` [piceide, resveratrol-3-O-β-mono-D-glucoside], for which, in data set [1] (equal doses 1.25 - 2.5 - 5 µg/ml, differences statistically significant at each point), the “decrease in iNOS-positive fibroblasts compared to resveratrol” value is listed as “greater”. For the same compound, the “number of iNOS-positive fibroblasts” value in data set [1] was “dose-dependent decrease”. Also, the “percentage of α-SMA+ cells” value is “percentage decrease in fibroblasts which was already significant” with hTERT fibroblasts [2] (above-optimal dose (10 ng/ml) of TGF-β, 5th day, Figure 4) and “brought the number of fibroblasts back to physiological conditions” with hTERT fibroblasts [2] (above-optimal dose (10 ng/ml) of TGF-β, 10th day, Figure 4). Also, the “percentage of α-SMA-positive cells” value in the data set on hTERT fibroblasts [2] (optimal dose (1 ng/ml) of TGF-β, all three time intervals (3, 5, 10 days), Figure 3) is recorded as “did not lead to any significant percentage variations”. For the same compound, the “percentage of cells capable of expressing α-SMA” value is “decreased, although still remaining statistically significant” in the data set with hTERT fibroblasts [2] (5th day); “no longer any significant percentages of cells able to express α-SMA” in the data set with hTERT fibroblasts [2] (10th day); “statistically significant increase” in the data set on hTERT fibroblasts [2] (3 days, compared to non-treated). The “inhibition of iNOS production compared to resveratrol” value with iNOS is “more effective”. For the same compound, in data set [4] (fibroblasts of normal corneal origin, sub-optimal concentration of TGF-β), the “TGF-β activity assessed by α-SMA expression” value is on record as “increase growth factor activity”. Further, the α-SMA expression result in data set [4] (normal fibroblasts, above-optimal concentration of TGF-β) was “decrease in α-SMA expression”. Besides, in data set [3], the “effect on liver myofibroblasts” value is “did not show any significant effects”. In addition, in the data set on hTERT fibroblasts [5], the toxicity entry was “does not appear toxic”.
